What was measured:
Assay type in all cases: in vivo
[1] = system: ALOMY, Blackgrass, Alopecurus myosuroides; test: Preemergence herbicidal evaluation (Example 148); conditions: rating scale 0-9, two to four weeks after treatment
Summary of the method: (§1)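 Sow seed–soil mix onto ~1 in soil; spray aqueous acetone compound solution (~0.125–0.250 kg/ha equivalent); keep on greenhouse benches under standard watering; score injury visually after 2–4 weeks.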

[2] = system: ABUTH, Velvetleaf, Abutilon theophrasti, Medic.; test: Preemergence herbicidal evaluation (Example 148); conditions: rating scale 0-9, two to four weeks after treatment
Summary of the method: as §1

[3] = system: TRZAW, Winter wheat, Tritium Aestivum, L. (Winter); test: Preemergence herbicidal evaluation (Example 148); conditions: rating scale 0-9, two to four weeks after treatment
Summary of the method: as §1

[4] = system: SETVI, Green foxtail, Setaria viridis, (L.)Beau; test: Preemergence herbicidal evaluation (Example 148); conditions: rating scale 0-9, two to four weeks after treatment
Summary of the method: as §1

[5] = system: GLXMA, Soybean, Glycine max, (L.) Merr.; test: Preemergence herbicidal evaluation (Example 148); conditions: rating scale 0-9, two to four weeks after treatment
Summary of the method: as §1

[6] = system: ECHCG, Barnyardgrass, Echinochloa crusgalli, (L.)Beau; test: Preemergence herbicidal evaluation (Example 148); conditions: rating scale 0-9, two to four weeks after treatment
Summary of the method: as §1

[7] = system: XANST, Cocklebur, Xanthium strumariam; test: Preemergence herbicidal evaluation (Example 148); conditions: rating scale 0-9, two to four weeks after treatment
Summary of the method: as §1

[8] = system: DIGSA, Crabgrass, (Hairy) L, Digitaria sanguinalis, (L)Scop; test: Preemergence herbicidal evaluation (Example 148); conditions: rating scale 0-9, two to four weeks after treatment
Summary of the method: as §1

[9] = system: AMBEL, Ragweed, Common, Ambrosia artemiisifolia, L.; test: Preemergence herbicidal evaluation (Example 148); conditions: rating scale 0-9, two to four weeks after treatment
Summary of the method: as §1

[10] = system: IPOHE, Morningglory, Ivyleaf, Ipomoea hederacea, (L)Jacq.; test: Preemergence herbicidal evaluation (Example 148); conditions: rating scale 0-9, two to four weeks after treatment
Summary of the method: as §1

[11] = system: ZEAMX, Field corn, Zea mays L.; test: Preemergence herbicidal evaluation (Example 148); conditions: rating scale 0-9, two to four weeks after treatment
Summary of the method: as §1

[12] = system: CHEAL, Lambsquarters, Chenopodium album, L. Common; test: Preemergence herbicidal evaluation (Example 148); conditions: rating scale 0-9, two to four weeks after treatment
Summary of the method: as §1

[13] = system: ALOMY, Blackgrass, Alopecurus myosuroides; test: Postemergence herbicidal evaluation (Example 147); conditions: rating scale 0-9, two to three weeks after treatment
Summary of the method: (§2)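 About two-week-old seedlings were sprayed postemergence at roughly 0.016–0.032 kg/ha in 80/20 acetone/water with 1.0% methylated seed oil. After two to three weeks in the greenhouse, injury was rated visually on a 0–9 scale against controls, and repeat tests were averaged.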

[14] = system: ABUTH, Velvetleaf, Abutilon theophrasti, Medic.; test: Postemergence herbicidal evaluation (Example 147); conditions: rating scale 0-9, two to three weeks after treatment
Summary of the method: as §2

[15] = system: TRZAW, Winter wheat, Tritium Aestivum, L. (Winter); test: Postemergence herbicidal evaluation (Example 147); conditions: rating scale 0-9, two to three weeks after treatment
Summary of the method: as §2

[16] = system: SETVI, Green foxtail, Setaria viridis, (L.)Beau; test: Postemergence herbicidal evaluation (Example 147); conditions: rating scale 0-9, two to three weeks after treatment
Summary of the method: as §2

[17] = system: GLXMA, Soybean, Glycine max, (L.) Merr.; test: Postemergence herbicidal evaluation (Example 147); conditions: rating scale 0-9, two to three weeks after treatment
Summary of the method: as §2

[18] = system: ECHCG, Barnyardgrass, Echinochloa crusgalli, (L.)Beau; test: Postemergence herbicidal evaluation (Example 147); conditions: rating scale 0-9, two to three weeks after treatment
Summary of the method: as §2

[19] = system: XANST, Cocklebur, Xanthium strumariam; test: Postemergence herbicidal evaluation (Example 147); conditions: rating scale 0-9, two to three weeks after treatment
Summary of the method: as §2

[20] = system: DIGSA, Crabgrass, (Hairy) L, Digitaria sanguinalis, (L)Scop; test: Postemergence herbicidal evaluation (Example 147); conditions: rating scale 0-9, two to three weeks after treatment
Summary of the method: as §2

[21] = system: AMBEL, Ragweed, Common, Ambrosia artemiisifolia, L.; test: Postemergence herbicidal evaluation (Example 147); conditions: rating scale 0-9, two to three weeks after treatment
Summary of the method: as §2

[22] = system: IPOHE, Morningglory, Ivyleaf, Ipomoea hederacea, (L)Jacq.; test: Postemergence herbicidal evaluation (Example 147); conditions: rating scale 0-9, two to three weeks after treatment
Summary of the method: as §2

[23] = system: ZEAMX, Field corn, Zea mays L.; test: Postemergence herbicidal evaluation (Example 147); conditions: rating scale 0-9, two to three weeks after treatment
Summary of the method: as §2

[24] = system: CHEAL, Lambsquarters, Chenopodium album, L. Common; test: Postemergence herbicidal evaluation (Example 147); conditions: rating scale 0-9, two to three weeks after treatment
Summary of the method: as §2

CN(CCC#N)S(=O)(=O)NC(=O)c1cc(-n2c(=O)cc(C(F)(F)F)n(C)c2=O)c(F)cc1Cl [Example 84]
Preemergence herbicidal rating ALMOY ([1]; rate 0.125 kg/ha): 0.0
Preemergence herbicidal rating ALMOY ([1]; rate 0.25 kg/ha): 1.0
Preemergence herbicidal rating ABUTH ([2]; rate 0.125 kg/ha): 9.0
Preemergence herbicidal rating ABUTH ([2]; rate 0.25 kg/ha): 9.0
Preemergence herbicidal rating TRZAW ([3]; rate 0.125 kg/ha): 0.0
Preemergence herbicidal rating TRZAW ([3]; rate 0.25 kg/ha): 2.0
Preemergence herbicidal rating SETVI ([4]; rate 0.125 kg/ha): 7.0
Preemergence herbicidal rating SETVI ([4]; rate 0.25 kg/ha): 7.0
Preemergence herbicidal rating GLXMA ([5]; rate 0.125 kg/ha): 2.0
Preemergence herbicidal rating GLXMA ([5]; rate 0.25 kg/ha): 7.0
Preemergence herbicidal rating ECHCG ([6]; rate 0.125 kg/ha): 5.0
Preemergence herbicidal rating ECHCG ([6]; rate 0.25 kg/ha): 6.0
Preemergence herbicidal rating XANST ([7]; rate 0.125 kg/ha): 9.0
Preemergence herbicidal rating XANST ([7]; rate 0.25 kg/ha): 9.0
Preemergence herbicidal rating DIGSA ([8]; rate 0.125 kg/ha): 7.0
Preemergence herbicidal rating DIGSA ([8]; rate 0.25 kg/ha): 8.0
Preemergence herbicidal rating AMBEL ([9]; rate 0.125 kg/ha): 9.0
Preemergence herbicidal rating AMBEL ([9]; rate 0.25 kg/ha): 9.0
Preemergence herbicidal rating IPOHE ([10]; rate 0.125 kg/ha): 9.0
Preemergence herbicidal rating IPOHE ([10]; rate 0.25 kg/ha): 9.0
Preemergence herbicidal rating ZEAMX ([11]; rate 0.125 kg/ha): 0.0
Preemergence herbicidal rating ZEAMX ([11]; rate 0.25 kg/ha): 1.0
Preemergence herbicidal rating CHEAL ([12]; rate 0.125 kg/ha): 9.0
Preemergence herbicidal rating CHEAL ([12]; rate 0.25 kg/ha): 9.0
Postemergence herbicidal rating ALMOY ([13]; rate 0.016 kg/ha): 1.0
Postemergence herbicidal rating ALMOY ([13]; rate 0.032 kg/ha): 2.0
Postemergence herbicidal rating ABUTH ([14]; rate 0.016 kg/ha): 9.0
Postemergence herbicidal rating ABUTH ([14]; rate 0.032 kg/ha): 9.0
Postemergence herbicidal rating TRZAW ([15]; rate 0.016 kg/ha): 5.0
Postemergence herbicidal rating TRZAW ([15]; rate 0.032 kg/ha): 5.5
Postemergence herbicidal rating SETVI ([16]; rate 0.016 kg/ha): 7.0
Postemergence herbicidal rating SETVI ([16]; rate 0.032 kg/ha): 8.0
Postemergence herbicidal rating GLXMA ([17]; rate 0.016 kg/ha): 7.0
Postemergence herbicidal rating GLXMA ([17]; rate 0.032 kg/ha): 8.5
Postemergence herbicidal rating ECHCG ([18]; rate 0.016 kg/ha): 8.0
Postemergence herbicidal rating ECHCG ([18]; rate 0.032 kg/ha): 9.0
Postemergence herbicidal rating XANST ([19]; rate 0.016 kg/ha): 9.0
Postemergence herbicidal rating XANST ([19]; rate 0.032 kg/ha): 9.0
Postemergence herbicidal rating DIGSA ([20]; rate 0.016 kg/ha): 5.0
Postemergence herbicidal rating DIGSA ([20]; rate 0.032 kg/ha): 6.0
Postemergence herbicidal rating AMBEL ([21]; rate 0.016 kg/ha): 8.0
Postemergence herbicidal rating AMBEL ([21]; rate 0.032 kg/ha): 9.0
Postemergence herbicidal rating IPOHE ([22]; rate 0.016 kg/ha): 9.0
Postemergence herbicidal rating IPOHE ([22]; rate 0.032 kg/ha): 9.0
Postemergence herbicidal rating ZEAMX ([23]; rate 0.016 kg/ha): 7.0
Postemergence herbicidal rating ZEAMX ([23]; rate 0.032 kg/ha): 8.0
Postemergence herbicidal rating CHEAL ([24]; rate 0.016 kg/ha): 7.0
Postemergence herbicidal rating CHEAL ([24]; rate 0.032 kg/ha): 9.0
